Results on 17 compounds are retold here after patent publication US20260193293A1, “PEPTIDES CAPABLE OF INHIBITING PROTEIN-PROTEIN INTERACTIONS AT GABAB1A SUBUNIT AND USES THEREOF” (UNIVERSITY OF COPENHAGEN, priority 2022, published 2026).

Where two headings read alike, the source gives them in different places. Non-standard residues stand in square brackets, D forms with d. Residues, ends and D or L forms follow the SMILES beside them. *: point of attachment. NMeW = CN[C@@H](Cc1c[nH]c2ccccc12)C(=O)O; NMeT = CN[C@H](C(=O)O)[C@@H](C)O; NMeE = CN[C@@H](CCC(=O)O)C(=O)O; Bn = c1ccc(C*)cc1

This assay concerns the target Sushi domains (SD1/2) protein. Put plainly: Fluorescence polarization (FP) competition assay with AJAP-1probe, calculated Ki. The class given is binding. Put shortly:
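Ki values were derived from IC50s (sigmoidal fits, ≥ triplicate), with probe Kd obtained by saturation titration of SD1/2. Peptides displaced a 25 nM TAMRA-labelled probe; polarization read at 530/580 nm in 1% BSA-containing PBS, pH 7.4, room temperature.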

Where [1] appears, read: Table 5, elongation and truncation scan of AJAP-1 binding epitope, read-out: Ki (nM) mean ± SEM.
Where [2] appears, read: Table 4, truncation and elongation scans of APP epitope, read-out: Ki (nM) mean ± SEM.
Where [3] appears, read: Table 9, Ala-, D-amino acids and N-methylation scans of PIANPWT, read-out: Ki (nM) mean ± SEM.
Setting [4] is: Table 7, Ala-, D-amino acids and N-methylation scans of APPWT, read-out: Ki (nM) mean ± SEM.

Regarding `CC[C@H](C)[C@H](NC(=O)[C@H](Cc1ccccc1)NC(=O)[C@H](CCC(=O)O)NC(=O)[C@@H](NC(=O)[C@H](CCC(=O)O)NC(=O)[C@@H](NC(C)=O)[C@@H](C)O)[C@@H](C)O)C(=O)N[C@@H](C)C(=O)N[C@@H](Cc1c[nH]c2ccccc12)C(N)=O` (Ac-TETEFIAW-NH2), the Ki under setting [1] is 1010 ± 67 nM.

As for `CC[C@H](C)[C@H](NC(=O)[C@H](C)NC(=O)[C@H](CCC(=O)O)NC(=O)[C@@H](NC(=O)[C@H](CCC(=O)O)NC(C)=O)[C@@H](C)O)C(=O)N[C@@H](C)C(=O)N[C@@H](Cc1c[nH]c2ccccc12)C(=O)NCC(=O)N1CCC[C@H]1C(=O)N[C@H](C(=O)NCC(=O)N[C@@H](CC(=O)O)C(=O)N[C@@H](CCC(=O)O)C(=O)N[C@@H](CC(=O)O)C(N)=O)[C@@H](C)O` [ETEAIAWGPTGDED] (Ac-ETEAIAWGPTGDED-NH2), where the note is “Table 8, Ala-, D-amino acids and N-methylation scans of AJAP-1WT, read-out: Ki (nM) mean ± SEM”, the Ki was 688 ± 11 nM.

For `CC[C@H](C)[C@H](NC(=O)[C@H](C)NC(=O)[C@H](Cc1c[nH]c2ccccc12)NC(=O)[C@@H]1CCCN1C(C)=O)C(=O)N[C@H](C(=O)N[C@@H](Cc1c[nH]c2ccccc12)C(=O)NCC(=O)N1CCC[C@H]1C(=O)N[C@H](C(=O)N[C@@H](CO)C(=O)N[C@@H](CO)C(=O)N[C@@H](CCCNC(=N)N)C(=O)N[C@@H](CCC(=O)O)C(=O)N[C@@H](CC(=O)O)C(N)=O)[C@@H](C)O)C(C)C` [PWAIVWGPTSSRED] (Ac-PWAIVWGPTSSRED-NH2), where the note is “Table 12, deep mutational scanning validation variants of PIANPWT, read-out: Ki (nM) mean ± SEM”, the Ki is 383 ± 3 nM.

For the compound `CC[C@H](C)[C@H](NC(=O)[C@H](C)NC(=O)[C@H](Cc1c[nH]c2ccccc12)NC(=O)[C@@H]1CCCN1C(C)=O)C(=O)N[C@H](C(=O)N[C@@H](Cc1c[nH]c2ccccc12)C(=O)NCC(=O)N1CCC[C@H]1C(=O)N[C@H](C(=O)NCC(=O)N[C@@H](CC(=O)O)C(=O)N[C@@H](CCC(=O)O)C(=O)N[C@@H](CC(=O)O)C(N)=O)[C@@H](C)O)C(C)C` [PWAIVWGPTGDED] (Ac-PWAIVWGPTGDED-NH2), for the setting “Table 13, peptides for affinity maturation, read-out: Ki (nM) mean ± SEM”, the Ki is 222 ± 1 nM.

Regarding `CC[C@H](C)[C@H](NC(=O)[C@H](C)NC(=O)[C@H](Cc1c[nH]c2ccccc12)NC(=O)[C@@H]1CCCN1C(C)=O)C(=O)N[C@H](C(=O)N[C@@H](Cc1c[nH]c2ccccc12)C(=O)NCC(=O)N1CCC[C@H]1C(=O)N[C@H](C(=O)N[C@H](C(=O)N[C@@H](CO)C(=O)N[C@@H](CCCNC(=N)N)C(=O)N[C@@H](CCC(=O)O)C(=O)N[C@@H](CC(=O)O)C(=O)NCC(=O)NCC(=O)N[C@@H](CC(=O)O)C(=O)N1CCC[C@H]1C(=O)N[C@@H](CC(N)=O)C(N)=O)C(C)C)[C@@H](C)O)C(C)C` (Ac-PWAIVWGPTVSREDGGDPN-NH2), the Ki (Table 6, elongation and truncation scan of PIANP binding epitope, read-out: Ki (nM) mean ± SEM) was 579 ± 21 nM.

As to `CC(=O)N[C@@H](CC(=O)O)C(=O)N[C@H](C(=O)N[C@@H](Cc1c[nH]c2ccccc12)C(=O)N[C@@H](Cc1c[nH]c2ccccc12)C(=O)NCC(=O)NCC(=O)N[C@@H](C)C(=O)N[C@@H](CC(=O)O)C(=O)N[C@H](C(=O)N[C@@H](CC(=O)O)C(=O)N[C@@H](Cc1ccc(O)cc1)C(=O)N[C@@H](C)C(=O)N[C@@H](CC(=O)O)C(N)=O)[C@@H](C)O)C(C)C` (Ac-DVWWGGADTDYAD-NH2), under setting [2], the Ki was 6100 ± 307 nM.

`CC[C@H](C)[C@H](NC(=O)[C@H](Cc1ccccc1)NC(=O)[C@H](CCC(=O)O)NC(=O)[C@@H](NC(=O)[C@H](CCC(=O)O)NC(C)=O)[C@@H](C)O)C(=O)N[C@@H](C)C(=O)N[C@@H](Cc1c[nH]c2ccccc12)C(=O)NCC(=O)N1CCC[C@H]1C(=O)N[C@H](C(=O)NCC(=O)N[C@@H](CC(=O)O)C(=O)N[C@@H](Cc1ccccc1)C(=O)N[C@@H](CC(=O)O)C(N)=O)[C@@H](C)O` (Ac-ETEFIAWGPTGDFD-NH2): for the setting “Table 11, deep mutational scanning validation variants of AJAP-1WT, read-out: Ki (nM) mean ± SEM”, the Ki was 41 ± 2 nM.

As to `CC(=O)N[C@@H](CCC(=O)O)C(=O)N[C@@H](CCC(=O)O)C(=O)N[C@@H](CC(=O)O)C(=O)N[C@@H](CC(=O)O)C(=O)N[C@@H](CO)C(=O)N[C@@H](CC(=O)O)C(=O)N[C@H](C(=O)N[C@@H](Cc1c[nH]c2ccccc12)C(N)=O)C(C)C` (Ac-EEDDSDVW-NH2), the Ki under setting [2] is greater than 62500 nM.

With `CC[C@H](C)[C@H](NC(=O)[C@H](C)NC(=O)[C@H](Cc1c[nH]c2ccccc12)N(C)C(=O)[C@@H]1CCCN1C(C)=O)C(=O)N[C@H](C(=O)N[C@@H](Cc1c[nH]c2ccccc12)C(=O)NCC(=O)N1CCC[C@H]1C(=O)N[C@H](C(=O)N[C@H](C(=O)N[C@@H](CO)C(=O)N[C@@H](CCCNC(=N)N)C(=O)N[C@@H](CCC(=O)O)C(=O)N[C@@H](CC(=O)O)C(N)=O)C(C)C)[C@@H](C)O)C(C)C` [P(N-Me-W)AIVWGPTVSRED] (Ac-P[NMeW]AIVWGPTVSRED-NH2), the Ki under setting [3] was 833 ± 12 nM.

Consider `CC[C@H](C)[C@H](NC(=O)[C@H](Cc1ccccc1)NC(=O)[C@H](CCC(=O)O)NC(=O)[C@@H](NC(=O)[C@H](CCC(=O)O)NC(=O)[C@@H](NC(=O)[C@@H](NC(C)=O)[C@@H](C)O)[C@@H](C)O)[C@@H](C)O)C(=O)N[C@@H](C)C(=O)N[C@@H](Cc1c[nH]c2ccccc12)C(=O)NCC(=O)N1CCC[C@H]1C(=O)N[C@H](C(=O)NCC(=O)N[C@@H](CC(=O)O)C(=O)N[C@@H](CCC(=O)O)C(=O)N[C@@H](CC(=O)O)C(N)=O)[C@@H](C)O` (Ac-TTETEFIAWGPTGDED-NH2), for which the Ki under setting [1] was 32 ± 1.4 nM.

With `CC[C@H](C)[C@H](NC(=O)[C@H](Cc1ccc(OCc2ccccc2)cc1)NC(=O)[C@H](CC(=O)O)NC(=O)[C@H](CC(=O)O)NC(=O)[C@H](CC(=O)O)NC(=O)[C@H](CCC(=O)O)NC(C)=O)C(=O)N[C@@H](CC(=O)O)C(=O)N[C@@H](Cc1c[nH]c2ccccc12)C(=O)NCC(=O)N1CCC[C@H]1C(=O)N[C@H](C(=O)N[C@@H](CO)C(=O)N[C@@H](CC(=O)O)C(=O)N[C@@H](CC(=O)O)C(=O)N[C@@H](CC(=O)O)C(N)=O)[C@@H](C)O` [Peptide 35] (Ac-EDDDY(Bn)IDWGPTSDDD-NH2), the Ki (Table 1, affinity maturation, mean ± SEM, n ≥ 3, read-out: Ki) was 9.5 ± 0.3 nM and the Ki (Table 16, ncAAs incorporated peptides, read-out: Ki (nM) mean ± SEM) was 9.5 ± 0.3 nM.

As for `CC[C@H](C)[C@H](NC(=O)[C@H](C)NC(=O)[C@H](Cc1c[nH]c2ccccc12)NC(=O)[C@@H]1CCCN1C(C)=O)C(=O)N[C@H](C(=O)N[C@@H](Cc1c[nH]c2ccccc12)C(=O)NCC(=O)N1CCC[C@H]1C(=O)N[C@H](C(=O)N[C@@H](C)C(=O)N[C@@H](CO)C(=O)N[C@@H](CCCNC(=N)N)C(=O)N[C@@H](CCC(=O)O)C(=O)N[C@@H](CC(=O)O)C(N)=O)[C@@H](C)O)C(C)C` [PWAIVWGPTASRED] (Ac-PWAIVWGPTASRED-NH2), the Ki under setting [3] is 318 ± 3 nM.

Turning to `CC(=O)N[C@@H](CCC(=O)O)C(=O)N[C@@H](CC(=O)O)C(=O)N[C@@H](CC(=O)O)C(=O)N[C@@H](CO)C(=O)N[C@@H](CC(=O)O)C(=O)N[C@H](C(=O)N[C@@H](Cc1c[nH]c2ccccc12)C(=O)N[C@@H](Cc1c[nH]c2ccccc12)C(=O)NCC(=O)NCC(=O)N[C@@H](C)C(=O)N[C@@H](CC(=O)O)C(=O)N(C)[C@H](C(=O)N[C@@H](CC(=O)O)C(N)=O)[C@@H](C)O)C(C)C` (Ac-EDDSDVWWGGAD[NMeT]D-NH2), the Ki under setting [4] was 503 ± 13 nM.

As to `CC(=O)N[C@@H](CCC(=O)O)C(=O)N[C@@H](CC(=O)O)C(=O)N[C@@H](CC(=O)O)C(=O)N[C@@H](CO)C(=O)N[C@@H](CC(=O)O)C(=O)N[C@H](C(=O)N[C@@H](Cc1c[nH]c2ccccc12)C(=O)N[C@@H](C)C(=O)NCC(=O)NCC(=O)N[C@@H](C)C(=O)N[C@@H](CC(=O)O)C(=O)N[C@H](C(=O)N[C@@H](CC(=O)O)C(N)=O)[C@@H](C)O)C(C)C` (Ac-EDDSDVWAGGADTD-NH2), the Ki (Table 7, cells printed in μM, read-out: Ki (nM) mean ± SEM) is greater than 62500 nM.

Consider `CC(=O)N[C@@H](CCC(=O)O)C(=O)N[C@@H](CCC(=O)O)C(=O)N[C@@H](CC(=O)O)C(=O)N[C@@H](CC(=O)O)C(=O)N[C@@H](CO)C(=O)N[C@@H](CC(=O)O)C(=O)N[C@H](C(=O)N[C@@H](Cc1c[nH]c2ccccc12)C(=O)N[C@@H](Cc1c[nH]c2ccccc12)C(=O)NCC(=O)NCC(=O)N[C@@H](C)C(=O)N[C@@H](CC(=O)O)C(=O)N[C@H](C(=O)N[C@@H](CC(=O)O)C(=O)N[C@@H](Cc1ccc(O)cc1)C(=O)N[C@@H](C)C(=O)N[C@@H](CC(=O)O)C(=O)NCC(=O)NCC(N)=O)[C@@H](C)O)C(C)C` (Ac-EEDDSDVWWGGADTDYADGG-NH2), for which the Ki under setting [2] is 341 ± 6 nM.

For the compound `CC(=O)N[C@@H](CCC(=O)O)C(=O)N[C@@H](CCC(=O)O)C(=O)N[C@@H](CC(=O)O)C(=O)N[C@@H](CC(=O)O)C(=O)N[C@@H](CO)C(=O)N[C@@H](CC(=O)O)C(=O)N[C@H](C(=O)N[C@@H](Cc1c[nH]c2ccccc12)C(=O)N[C@@H](Cc1c[nH]c2ccccc12)C(=O)NCC(N)=O)C(C)C` (Ac-EEDDSDVWWG-NH2), under setting [2], the Ki was 12800 ± 415 nM.

`CC(=O)N(C)[C@@H](CCC(=O)O)C(=O)N[C@@H](CC(=O)O)C(=O)N[C@@H](CC(=O)O)C(=O)N[C@@H](CO)C(=O)N[C@@H](CC(=O)O)C(=O)N[C@H](C(=O)N[C@@H](Cc1c[nH]c2ccccc12)C(=O)N[C@@H](Cc1c[nH]c2ccccc12)C(=O)NCC(=O)NCC(=O)N[C@@H](C)C(=O)N[C@@H](CC(=O)O)C(=O)N[C@H](C(=O)N[C@@H](CC(=O)O)C(N)=O)[C@@H](C)O)C(C)C` (Ac-[NMeE]DDSDVWWGGADTD-NH2): the Ki under setting [4] is 670 ± 6 nM.
